This note sets out measurements from ChEMBL document CHEMBL1275254 (2010).

Values after ≈ are worked out from the molar mass of the structure shown.

In this test the test system is Burkholderia pseudomallei. The test is described as follows: Antimicrobial activity against Burkholderia pseudomallei 1026b after 24 hrs by broth microdilution method. The class given is functional.

In the case of `O=C(N[C@H](CO)[C@H](O)c1ccc([N+](=O)[O-])cc1)C(Cl)Cl` [CHLORAMPHENICOL], the minimal inhibitory concentration (MIC) is 8 µg/mL (≈ 24.8 µM). For `CCC[C@@H]1C[C@@H](C(=O)N[C@@H]([C@H]2O[C@H](SC)[C@H](O)[C@@H](O)[C@H]2O)[C@H](C)Cl)N(C)C1` [CLINDAMYCIN] the value was > 4100 µg/mL.

The compound `NC[C@H]1O[C@H](O[C@H]2[C@H](O)[C@@H](O[C@H]3O[C@H](CO)[C@@H](O)[C@H](N)[C@H]3O)[C@H](N)C[C@@H]2N)[C@H](O)[C@@H](O)[C@@H]1O` [KANAMYCIN] registered an MIC of 64 µg/mL (≈ 132 µM). For `CN[C@@H]1[C@H](O)[C@H](NC)[C@H]2O[C@@]3(O)C(=O)C[C@@H](C)O[C@H]3O[C@@H]2[C@H]1O` [SPECTINOMYCIN] the value was 2050 µg/mL (≈ 6160 µM).

Regarding `CN[C@@H]1[C@H](O[C@H]2[C@H](O[C@H]3[C@H](O)[C@@H](O)[C@H](N=C(N)N)[C@@H](O)[C@@H]3N=C(N)N)O[C@@H](C)[C@]2(O)C=O)O[C@@H](CO)[C@H](O)[C@H]1O` [STREPTOMYCIN], the MIC is > 2050 µg/mL.

In turn, `CC[C@H]1OC(=O)[C@H](C)[C@@H](O[C@H]2C[C@@](C)(OC)[C@@H](O)[C@H](C)O2)[C@H](C)[C@@H](O[C@@H]2O[C@H](C)C[C@H](N(C)C)[C@H]2O)[C@](C)(OC)C[C@@H](C)C(=O)[C@H](C)[C@@H](O)[C@]1(C)O` [CLARITHROMYCIN] yielded an MIC of 128 µg/mL (≈ 171 µM). Under `CC1COc2c(N3CCN(C)CC3)c(F)cc3c(=O)c(C(=O)O)cn1c23` (stereo not drawn) [OFLOXACIN] stands 2 µg/mL (≈ 5.53 µM). Under GENTAMICIN stands 512 µg/mL.

One may read the MIC as the lowest concentration that inhibits growth of the organism. A high value points to a need for much substance.
